The values below are quoted from earlier work in patent US20240156825A1, “USE OF SELECTIVE VEGFR2 AND FGFR1 INHIBITORS” (Fountain Therapeutics Inc., priority 2022, published 2024).

Like-named read-outs stand apart in the source and are kept apart here.

One series deals with VEGFR2 (Homo sapiens, UniProt P35968). The conditions noted are these: reported IC50 to VEGFR2, read-out: VEGFR2 IC50_μM, cited from earlier work.
For another series, the system named is any gene target. To be noted: next lowest IC50 value to any gene target, read-out: Min IC50_μM, cited from earlier work.
[1] abbreviates: Table 3, selective inhibitors of VEGFR2.

VEGFR2, sequence (P35968 20-1356, species assumed): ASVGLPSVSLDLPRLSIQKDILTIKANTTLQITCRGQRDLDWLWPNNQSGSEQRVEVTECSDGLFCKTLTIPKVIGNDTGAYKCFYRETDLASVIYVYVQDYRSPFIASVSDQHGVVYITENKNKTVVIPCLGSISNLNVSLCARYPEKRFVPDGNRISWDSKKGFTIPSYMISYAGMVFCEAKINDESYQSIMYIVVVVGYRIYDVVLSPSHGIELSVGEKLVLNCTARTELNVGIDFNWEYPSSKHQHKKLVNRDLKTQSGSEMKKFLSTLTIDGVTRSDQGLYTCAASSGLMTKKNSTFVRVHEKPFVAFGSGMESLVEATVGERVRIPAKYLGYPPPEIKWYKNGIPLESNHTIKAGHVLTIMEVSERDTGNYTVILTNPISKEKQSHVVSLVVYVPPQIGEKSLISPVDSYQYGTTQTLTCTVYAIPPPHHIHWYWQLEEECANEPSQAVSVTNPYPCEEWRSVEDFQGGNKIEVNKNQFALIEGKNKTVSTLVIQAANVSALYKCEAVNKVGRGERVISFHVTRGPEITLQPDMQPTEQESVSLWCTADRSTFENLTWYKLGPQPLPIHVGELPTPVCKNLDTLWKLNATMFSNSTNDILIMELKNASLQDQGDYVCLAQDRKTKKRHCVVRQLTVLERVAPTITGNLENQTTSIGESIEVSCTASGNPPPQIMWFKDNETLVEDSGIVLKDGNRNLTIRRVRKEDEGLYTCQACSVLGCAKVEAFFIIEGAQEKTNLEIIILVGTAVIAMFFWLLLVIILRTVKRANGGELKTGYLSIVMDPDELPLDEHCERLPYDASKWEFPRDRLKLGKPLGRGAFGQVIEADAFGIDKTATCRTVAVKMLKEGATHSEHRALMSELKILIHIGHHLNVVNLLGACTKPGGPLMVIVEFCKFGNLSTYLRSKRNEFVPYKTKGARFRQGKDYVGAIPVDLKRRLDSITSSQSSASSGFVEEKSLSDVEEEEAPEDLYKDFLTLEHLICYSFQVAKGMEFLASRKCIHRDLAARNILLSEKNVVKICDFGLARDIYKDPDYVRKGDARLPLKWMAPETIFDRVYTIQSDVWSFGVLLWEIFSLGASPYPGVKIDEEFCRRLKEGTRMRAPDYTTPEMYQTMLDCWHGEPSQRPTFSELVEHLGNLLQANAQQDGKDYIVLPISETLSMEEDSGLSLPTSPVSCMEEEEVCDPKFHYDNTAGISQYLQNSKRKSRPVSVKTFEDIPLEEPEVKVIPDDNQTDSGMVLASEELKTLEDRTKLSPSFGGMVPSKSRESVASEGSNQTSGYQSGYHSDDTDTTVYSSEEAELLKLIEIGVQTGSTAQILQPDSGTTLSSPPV

As to `COc1cc2c(Nc3ccc(Br)c(Cl)c3F)ncnc2cc1OC[C@@H]1CN(C)CC(=O)N1` [compound 57802892], the IC50 at VEGFR2 (setting [1]) and in the series with any gene target (Table 3) was 50 nM each time.
Regarding `CS(=O)(=O)Cc1cccc(Nc2nccc(Oc3ccc4c(C(=O)Nc5cccnc5)cccc4c3)n2)c1` [compound 127037812], the IC50 at VEGFR2 was 0.5 nM; in the series on any gene target it was 4.9 nM.
As for `COc1cc2c(Nc3ccc(Cl)cc3F)ncnc2cc1OCCC1CCN(C)CC1` [compound 5329052], the IC50 at VEGFR2 is 55 nM; in the series with any gene target, 70 nM.
`CN=C(NC#N)N1CCOC(COc2cc3ncnc(Nc4ccc(Cl)c(C)c4)c3cc2OC)C1` (stereo not shown) [compound 89125605]: the IC50 at VEGFR2 (setting [1]) and with any gene target (Table 3) was 50 nM in each case.
Consider `Nc1ccc2c(c1)C(c1ccccc1Cl)=Nc1cn[nH]c1N2` [compound 136002661], for which the IC50 is 34 nM on VEGFR2 and 88 nM with any gene target.
Take `COc1cc2c(Nc3cc(F)c(Br)c(F)c3)ncnc2cc1OCC1CN(C)CCO1` (stereo not shown) [compound 57802849]: the IC50 on VEGFR2 (setting [1]) and with any gene target (Table 3) was 50 nM in each case.
With `COc1cc2c(Nc3ccc(C)cc3F)ncnc2cc1OCC1CCN(C)CC1` [compound 5329042], the figures for the IC50 at VEGFR2 and in the series on any gene target were 25 nM and 65 nM, respectively.
Take `COc1cc2c(Nc3ccc(Br)c(Cl)c3F)ncnc2cc1O[C@@H]1C[C@H]2OC[C@H](OC)[C@H]2O1` [compound 134155171]: the IC50 on VEGFR2 (setting [1]) and with any gene target (Table 3) was 50 nM throughout.
In the case of `COc1cc2c(Nc3ccc(Br)cc3F)ncnc2cc1OC[C@H]1CCCN(C)C1` [compound 5329057], the IC50 is 10 nM on VEGFR2 and 40 nM in the series with any gene target.
`COc1cc2ncnc(Nc3ccc(Cl)cc3)c2cc1OCCCC(=O)NO` [compound 127027096]: the results for the IC50 at VEGFR2 and with any gene target were 182 nM and 698 nM, respectively.
For the compound `COc1cc2c(Nc3ccc(Cl)c(Cl)c3F)ncnc2cc1OC[C@@H]1CN(C)CC(=O)N1C` [compound 57802574], the IC50 on VEGFR2 (setting [1]) and in the series with any gene target (Table 3) was 50 nM each time.
For the compound `COc1cc(C2=C(c3c[nH]c4ccc(I)cc34)C(=O)NC2=O)cc(OC)c1OC` [compound 46231220], the IC50 at VEGFR2 is 24.9 nM; in the series on any gene target, 29.5 nM.
For the compound `CC(C)Oc1cc2c(Nc3ccc(Cl)c(Cl)c3)ncnc2cc1OCC1CN(C)CCO1` (stereo not shown) [compound 57802797], the IC50 on VEGFR2 and in the series on any gene target was 50 nM throughout.
For `CNC(=O)Nc1ccc(CNc2ncsc2C(=O)Nc2ccc3c(c2)OC(F)(F)O3)cn1` [compound 44442418], the IC50 on VEGFR2 is 3 nM; with any gene target, 5 nM.
`COc1cc2c(Nc3c(F)cc(Br)cc3F)ncnc2cc1OCC1CCN(C)CC1` [compound 5329046]: the IC50 at VEGFR2 is 10 nM; in the series with any gene target, 100 nM.
`Cc1nn(C)c2cc(N(C)c3ccnc(Nc4cccc(S(N)(=O)=O)c4)n3)ccc12` [compound 24949545]: the figures for the IC50 on VEGFR2 and with any gene target were 36 nM and 1000 nM, respectively.
As for `Cc1ccc(C(=O)Nc2cccc(C(F)(F)F)c2)cc1Nc1nc2ccccc2n1-c1cc(NCCC#N)ncn1` [compound 46879446], the IC50 was 245 nM at VEGFR2 and 275 nM with any gene target.
With `COc1cc2c(Nc3ccc(Cl)cc3F)ncnc2cc1OCCN1CCOCC1` [compound 5329019], the IC50 at VEGFR2 is 40 nM; in the series with any gene target it was 300 nM.
Regarding `COc1cc2c(Nc3ccc(Br)cc3F)ncnc2cc1OCCC1CCNCC1` [compound 5329054], the IC50 at VEGFR2 (setting [1]) and in the series with any gene target (Table 3) was 40 nM in each case.
As for `COCCNC(=O)c1cccc2cc(Oc3ccnc4cc(OC)c(C(N)=O)cc34)ccc12` [compound 11224593], the IC50 was 22 nM on VEGFR2 and 233 nM in the series with any gene target.
Regarding `COc1cc2c(Nc3ccc(Cl)c(Cl)c3F)ncnc2cc1OCC1CN(C)C(C)(C)CO1` (stereo not shown) [compound 57802653], the IC50 at VEGFR2 and in the series on any gene target was 50 nM in each case.
With `COc1cc2c(Nc3ccc(Cl)c(Cl)c3)ncnc2cc1OCc1cscn1` [compound 10455540], the IC50 on VEGFR2 (setting [1]) and in the series with any gene target (Table 3) was 50 nM each time.
For `COc1cc2nccc(Oc3ccc4c(C(N)=O)cccc4c3)c2cc1OC` [compound 11474276], the IC50 on VEGFR2 was 0.891 nM; in the series with any gene target, 88 nM.
Regarding `COC(=O)c1ccc2c(C(=Nc3ccc(N(C)C(=O)Cn4ccnc4)cc3)c3ccccc3)c(O)[nH]c2c1` [compound 135399795], the IC50 on VEGFR2 is 6 nM; in the series on any gene target it was 7 nM.
In the case of `COc1cc2c(Nc3cccc(Cl)c3F)ncnc2cc1OCC1CN(C(N)=NC#N)CCCO1` (stereo not shown) [compound 134142438], the IC50 at VEGFR2 (setting [1]) and in the series with any gene target (Table 3) was 50 nM in each case.
In the case of `COc1cc2nccc(Oc3ccc4c(C(=O)NC5CCC5)cccc4c3)c2cc1OC` [compound 24824448], the figures for the IC50 on VEGFR2 and in the series with any gene target were 1.3 nM and 440 nM, respectively.
Turning to `C[C@@H](Nc1ncnc2[nH]c(-c3ccc(C(=O)NCCNCCCCCC(=O)NO)cc3)cc12)c1ccccc1` [compound 24900641], the IC50 at VEGFR2 and with any gene target was 100 nM each time.
Take `COc1cc2c(Nc3cc(Cl)c(Br)cc3F)ncnc2cc1OCC1CN(C)C(C)(C)CO1` (stereo not shown) [compound 57802776]: the IC50 on VEGFR2 and in the series on any gene target was 50 nM each time.
On to `COc1cc2c(Nc3ccc(Cl)c(Cl)c3)ncnc2cc1OC[C@@H]1O[C@@H](OC)[C@@H](O)[C@H](O)[C@H]1O` [compound 57802800], for which the IC50 at VEGFR2 and in the series with any gene target was 50 nM each time.
For `COc1cc2c(Nc3ccc(Cl)c(Cl)c3)ncnc2cc1OCc1csc(C2CCCN(C)C2)n1` (stereo not shown) [compound 57802607], the IC50 on VEGFR2 (setting [1]) and with any gene target (Table 3) was 50 nM throughout.
For `COCCOc1cc2ncnc(Nc3ccc(Cl)cc3F)c2cc1OC` [compound 5329011], the IC50 on VEGFR2 was 7 nM; with any gene target, 40 nM.
On to `COc1cc2c(Nc3ccc(Br)c(Cl)c3)ncnc2cc1OC1CCN(C)C1` (stereo not shown) [compound 57802786], for which the IC50 at VEGFR2 and in the series with any gene target was 50 nM in each case.
As for `COc1cc2c(Nc3ccc(Cl)c(Cl)c3)ncnc2cc1OCC1CC1` [compound 57802643], the IC50 on VEGFR2 and in the series with any gene target was 50 nM each time.
`COc1cc2c(Nc3ccc(Cl)c(Cl)c3)ncnc2cc1OCC1CN(C(N)=NC#N)CCO1` (stereo not shown) [compound 57802878]: the IC50 at VEGFR2 (setting [1]) and with any gene target (Table 3) was 50 nM each time.
In the case of `CCOc1cc2c(Nc3ccc(Cl)c(Cl)c3)ncnc2cc1OCC1CNCCO1` (stereo not shown) [compound 57802713], the IC50 at VEGFR2 and in the series with any gene target was 50 nM in each case.
As for `C[C@@H](Nc1ncnc2[nH]c(-c3ccc(CN4CCN(CCCC(=O)NO)CC4)cc3)cc12)c1ccccc1` [compound 24900378], the results for the IC50 at VEGFR2 and in the series on any gene target were 100 nM and 1000 nM, respectively.
Take `O=C1N/C=C/c2ccc(c(Br)c2)Oc2cc(cc(Br)c2O)CCNC(=O)/C(=N/O)Cc2ccc(c(Br)c2)Oc2cc(cc(Br)c2O)C/C1=N\O` [compound 10396070]: the figures for the IC50 at VEGFR2 and with any gene target were 1300 nM and 1500 nM, respectively.
As for `COc1cc2nccc(Oc3ccc4c(C(=O)NC5CC5)cccc4c3)c2cc1C(N)=O` [compound 11750694], the IC50 is 0.37 nM on VEGFR2 and 185 nM in the series with any gene target.
Regarding `COc1cc2c(Nc3ccc(Br)c(Cl)c3Cl)ncnc2cc1OCC1CN(C)C(C)(C)CO1` (stereo not shown) [compound 57802578], the IC50 on VEGFR2 and in the series with any gene target was 50 nM throughout.
On to `COc1cc2ncnc(Nc3ccc(Br)cc3)c2cc1OCCCCC(=O)NO` [compound 127028028], for which the IC50 is 59 nM on VEGFR2 and 68 nM in the series with any gene target.
For `C[C@@H](Nc1ncnc2[nH]c(-c3ccc(OCCCCC(=O)NO)cc3)cc12)c1ccccc1` [compound 24900507], the IC50 at VEGFR2 and with any gene target was 100 nM each time.
Turning to `COc1cc2c(Nc3cc(Cl)c(Br)cc3F)ncnc2cc1OC[C@@H]1CN2CCOC[C@H]2CO1` [compound 66838467], the IC50 on VEGFR2 (setting [1]) and with any gene target (Table 3) was 50 nM each time.
Consider `CN(c1ccc2cn(C)nc2c1)c1ccnc(Nc2cccc(S(N)(=O)=O)c2)n1` [compound 24949548], for which the results for the IC50 at VEGFR2 and in the series with any gene target were 7.6 nM and 2900 nM, respectively.
With `COc1cc(C2=C(c3cn(COC(C)(C)C)c4ccccc34)CNC2=O)cc(OC)c1OC` [compound 24894992], the IC50 at VEGFR2 (setting [1]) and in the series on any gene target (Table 3) was 4400 nM throughout.
`COc1cc2nccc(Oc3ccc4c(NC(=O)c5cccc(C(F)(F)F)c5)nn(C)c4c3)c2cc1OC` [compound 11398307]: the IC50 on VEGFR2 is 1 nM; with any gene target it was 45 nM.
`CN1CC(=Cc2ccccn2)C(=O)C(=Cc2ccccn2)C1` [compound 2132479]: the IC50 at VEGFR2 is 1300 nM; with any gene target, 1900 nM.
For `COc1cc2c(Nc3ccc(Br)c(Cl)c3F)ncnc2cc1OC[C@@H]1CN(C)CC(=O)N1C` [compound 57802721], the IC50 at VEGFR2 and in the series on any gene target was 50 nM each time.
As to `CN(c1ccc(F)c(NC(=O)c2cccc(OC(C)(C)C#N)c2Cl)c1)c1ccc2nc(NC(=O)C3CC3)sc2n1` [compound 25206346], the figures for the IC50 on VEGFR2 and in the series on any gene target were 1.2 nM and 23 nM, respectively.
As for `COCCNC(=O)c1cccc2cc(Oc3ncnc4cc(OC)c(OC)cc34)ccc12` [compound 24823252], the IC50 at VEGFR2 was 314 nM; with any gene target, 385 nM.
In the case of `CO/N=C(\C)c1ccc2c(c1)c1c3c(c4c(c1n2CC(C)C)CCc1nn(C)cc1-4)C(=O)NC3` [compound 44447890], the IC50 was 4 nM on VEGFR2 and 8 nM with any gene target.
On to `COc1cc2c(Nc3ccc(C)c(Br)c3)ncnc2cc1OCC1CN(C)CCO1` (stereo not shown) [compound 57802550], for which the IC50 at VEGFR2 (setting [1]) and with any gene target (Table 3) was 50 nM each time.
`COCn1cc(C2=C(c3cc(OC)c(OC)c(OC)c3)C(=O)NC2)c2ccccc21` [compound 24894887]: the IC50 at VEGFR2 was 2300 nM; with any gene target, 3200 nM.
Turning to `COc1cc2c(Nc3ccc(Cl)c(Cl)c3)ncnc2cc1OC[C@H]1CN2CCC[C@H]2CO1` [compound 66838546], the IC50 at VEGFR2 (setting [1]) and in the series with any gene target (Table 3) was 50 nM throughout.
